Results taken from publication PMC5114273, “Activity of Scorpion Venom-Derived Antifungal Peptides against Planktonic Cells of Candida spp. and Cryptococcus neoformans and Candida albicans Biofilms” (Frontiers in Microbiology, 2016).
≈ marks a conversion by molar mass, not a printed value. Ends that are not written are not given here.

What was measured:
C. albicans (SC5314) = assay: microbe, parasite or virus in culture; format: cell-based, Candida albicans; settings: Candida albicans, SC5314; RPMI-1640 pH 7.0, 2 × 10^3 cells/mL, 37°C, 24 h; complete inhibition of visible growth; at least three experiments; read-out: Minimum inhibitory concentration, C. albicans (SC5314)
Source text: (§1) Candida albicans strain SC 5314 (ATCC MYA-2876) was provided by Dr. Joshua Nosanchuk (New York, NY, USA). C. glabrata ATCC 90030, C. parapsilosis ATCC 22019, and C. tropicalis ATCC 750 were provided by Dr. Érika Kioshima (Universidade Estadual de Maringá, Paraná, Brazil). C. neoformans var. grubii strain H99 (serotype A, ATCC 208821) was provided by Dr. John Perfect (Durham, NC, USA). C. neoformans var. neoformans B3501 (serotype D, ATCC 34873) was obtained from ATCC (Manassas, VA, USA). All strains were stored as frozen stocks in 35% glycerol at -80°C. Before each experiment, all Candida spp. strains were grown in Sabouraud’s dextrose broth overnight at 30°C with agitation. C. neoformans strains were grown in the same conditions for 24 h. Fungal cells were collected by centrifugation, washed three times in phosphate buffered saline (PBS) (137 mM NaCl, 2.7 mM KCl, 10 mM Na2HPO4, 2 mM KH2PO4) and inoculated in Roswell Park Memorial Institute (RPMI) 1640 medium supplemented with L-glutamine and buffered to pH 7.0 with 165 mM 3-(N-morpholino)propanesulfonic acid for experiments described below.
(§2) In vitro antifungal assays were performed according to broth microdilution susceptibility test from Clinical and Laboratory Standards Institute (CLSI) M27-A3 guidelines with some modifications. Briefly, twofold serial dilutions of each peptide were prepared in 96-well polystyrene microplates to a final volume of 50 μL. Amphotericin B (Amp B; A2942, Sigma-Aldrich), a known antifungal drug, was used as a positive control. Final concentrations of each peptide and Amp B ranged from 100 to 0.78 μM and 16 to 0.03 μg/mL, respectively, except in tests with C. glabrata and C. parapsilosis, where the final peptide concentration ranged from 400 to 0.78 μM. In each plate, wells were included without peptide as a growth control. Then, 50 μL of the adjusted inoculum in RPMI-1640 medium were added to each well to a final concentration of 2 × 10^3 cells/mL for Candida spp. and 10^4 cells/mL for C. neoformans strains. The plates were incubated at 37°C for 24 and 48 h, respectively. The strains of C. neoformans were also incubated with shaking (200 rpm). […] The experiments were performed at least three times on separate dates.

C. tropicalis (ATCC 750) = assay: microbe, parasite or virus in culture; format: cell-based, Candida tropicalis; settings: Candida tropicalis, ATCC750; RPMI-1640 pH 7.0, 2 × 10^3 cells/mL, 37°C, 24 h; complete inhibition of visible growth; at least three experiments; read-out: Minimum inhibitory concentration, C. tropicalis (ATCC 750)
Source text: as §1, §2

C. glabrata (ATCC 90030) = assay: microbe, parasite or virus in culture; format: cell-based, Candida glabrata; settings: Nakaseomyces glabratus, ATCC90030; RPMI-1640 pH 7.0, 2 × 10^3 cells/mL, 37°C, 24 h; peptides 400 to 0.78 μM; at least three experiments; read-out: Minimum inhibitory concentration, C. glabrata (ATCC 90030)
Source text: as §1, §2

[1] = tested on: C. albicans SC 5314 mature biofilm; assay: C. albicans mature biofilm (XTT reduction); format: cell-based, Candida albicans; settings: at 2 μg/mL
Method: (§3) The effects of the peptides NDBP-4.23, ToAP1, ToAP2, and NDBP-5.7 on C. albicans biofilms were analyzed according to the protocol described by [Pierce et al. (2008)]. Briefly, C. albicans SC 5314 (10^6 cells/mL) was grown on 96-well polystyrene microplates and 4 h after seeding the peptides or Amp B were added to assess their effects on the first step of biofilm formation, the initial cell adherence. After 24 h of treatment, biofilm formation was measured by the metabolic assay based on the reduction of 2,3-bis-(2-methoxy-4-nitro-5-sulfophenyl)-2H-tetrazolium-5-carboxanilide (XTT). For the purpose of investigating effects of peptides on mature biofilms, the Candida cells were allowed to grow for 24 h prior to addition of the peptides or Amp B and the XTT assay was performed in the same way. All results were analyzed for statistical significance using analysis of variance (ANOVA) followed by Tukey post-test using GraphPad Prism 6 and expressed in terms of biofilm viability as XTT-readings percentage normalized by the control groups. Each compound was tested in triplicate and the experiments were performed at least twice on separate dates.

[2] = tested on: C. neoformans (B3501 serotype D); assay: microbe, parasite or virus in culture; format: cell-based, Cryptococcus neoformans var. neoformans; settings: Cryptococcus neoformans; RPMI-1640 pH 7.0, 10^4 cells/mL, 37°C, 48 h, shaking 200 rpm; at least three experiments; read-out: Minimum inhibitory concentration, C. neoformans (B3501 serotype D)
Source text: as §1, §2

[3] = tested on: C. albicans SC5314 biofilm; assay: Sessile MIC50 of C. albicans SC5314 biofilm (XTT reduction, supplement); format: cell-based, Candida albicans
Method: Figure 2R. Difference between supernatant volume used for OD 490nm reading (50 and 80µL) using XTT
reduce assay. The experiments were performed four times independently. Statistical analyses: two-way
ANOVA test and Turkey pos-test (**** P ≤ 0,0001; *** P ≤ 0,001; ** P ≤ 0,01; * P ≤ 0,05).
Table 1R. Sessile Minimum Inhibitory Concentration 50% (SMIC50) of C. albicans SC5314
biofilm in response to Amphotericin B serially diluted from 0,01562 to 16 µg/mL.

[4] = tested on: C. parapsilosis (ATCC 22019); assay: microbe, parasite or virus in culture; format: cell-based, Candida parapsilosis; settings: Lodderomyces parapsilosis, ATCC22019; RPMI-1640 pH 7.0, 2 × 10^3 cells/mL, 37°C, 24 h; peptides 400 to 0.78 μM; at least three experiments; read-out: Minimum inhibitory concentration, C. parapsilosis (ATCC 22019)
Source text: as §1, §2

[5] = tested on: C. albicans SC 5314 biofilm, initial cell adherence; assay: C. albicans biofilm, initial adherence (XTT reduction); format: cell-based, Candida albicans; settings: at 0.25 μg/mL
Method: as §3

[6] = tested on: C. neoformans (H99 serotype A); assay: microbe, parasite or virus in culture; format: cell-based, Cryptococcus neoformans var. grubii; settings: Cryptococcus neoformans; RPMI-1640 pH 7.0, 10^4 cells/mL, 37°C, 48 h, shaking 200 rpm; at least three experiments; read-out: Minimum inhibitory concentration, C. neoformans (H99 serotype A)
Source text: as §1, §2

[7] = Stability assays of native and modified peptide; format: physicochemical; settings: non-modified versus modified peptide
[8] = tested on: peritoneal macrophages of BALB/c mice; assay: Cytotoxic test using peritoneal macrophages (LDH release); format: cell-based, mouse; settings: 24 h, threshold of acceptable cytotoxicity 50% viability, three independent experiments
Method: BALB/c mice were injected with thioglycolate 72 h before peritoneal macrophages were harvested. They were diluted to a concentration of 10^6 cell/mL in RPMI-1640 supplemented with penicillin/streptomycin (100 U/mL, 100 µg/mL), 2 mM L-glutamine, 2 mM non-essential amino acids, 1 mM sodium pyruvate (all reagents from Sigma-Aldrich, St Louis, MO, USA) and 10% fetal bovine serum (FBS), and incubated in 96-well polystyrene microplates at 37°C, 5% CO2 for 24 h. The peptides were added then and cells were further incubated for 24 h as described previously ([Cruz et al., 2005]). Three independent experiments were performed. Cytotoxic activity was evaluated by the release of cytoplasmic enzyme lactate dehydrogenase due to cell lysis using the Cytotox kit (Promega). Briefly, at the end of the incubation period, supernatants were collected, the adhered cells were washed and the toxicity was determined according to the manufacturer’s protocol. The procedures were approved by the Ethics Committee on Animal Research of Institute of Biology (UnBDOC 52657/2011)/University of Brasília (UnB).

Compound | MIC (C. albicans (SC5314)) [µM] | MIC (C. tropicalis (ATCC 750)) [µM] | MIC (C. glabrata (ATCC 90030)) [µM] | Reduction in biofilm viability, three-dimensional architecture [1] | MIC [2] [µM] | SMIC50 ([3]; 4h biofilm, 50 µl supernatant read at OD 490nm) | SMIC50 ([3]; 4h biofilm, 80 µl supernatant read at OD 490nm) | SMIC50 ([3]; 24h biofilm, 50 µl supernatant read at OD 490nm) | SMIC50 ([3]; 24h biofilm, 80 µl supernatant read at OD 490nm) | SMIC50 ([3]; 48h biofilm, 50 µl supernatant read at OD 490nm) | SMIC50 ([3]; 48h biofilm, 80 µl supernatant read at OD 490nm) | MIC [4] [µM] | Reduction in biofilm viability, initial adherence [5] | MIC [6] [µM] | Stability compared with the modified peptide [7] | Concentrations showing low cytotoxicity [8]
C[C@@H]1[C@H](O)[C@@H](C)/C=C/C=C/C=C/C=C/C=C/C=C/C=C/[C@H](O[C@@H]2O[C@H](C)[C@@H](O)[C@H](N)[C@@H]2O)C[C@@H]2O[C@](O)(C[C@@H](O)C[C@@H](O)[C@H](O)CC[C@@H](O)C[C@@H](O)CC(=O)O[C@H]1C)C[C@H](O)[C@H]2C(=O)O [Amp B, Amphotericin B] | 1.08 (≈ 0.998 µg/mL) | 2.16 (≈ 2 µg/mL) | 1.08 (≈ 0.998 µg/mL) | at least 80% | 0.135 (≈ 0.125 µg/mL) | 0,08420 ug/mL | 0,06812 ug/mL | 0,1919 ug/mL | 0,1732 ug/mL | 0,2857 ug/mL | 0,2424 ug/mL | 2.16 (≈ 2 µg/mL) | at least 80% | 0.27 (≈ 0.25 µg/mL) | – | –
FFGTLFKLGSKLIPGVMKLFSKKKER [ToAP2] | – | – | – | – | – | – | – | – | – | – | – | – | – | – | lower stability | below 6.25 μM
